PubChem BioAssay (NCI)
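GI50 is the concentration that inhibits growth by half. At the TGI there is no net growth.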

Key:
Test in all cases: growth of human tumour cells (NCI), 384-well format
DU-145 prostate = system: DU-145 prostate
HCC-2998 colon = system: HCC-2998 colon
HL-60(TB) leukemia = system: HL-60(TB) leukemia
HOP-62 NSCLC = system: HOP-62 NSCLC
HS 578T breast = system: HS 578T breast
IGROV1 ovarian = system: IGROV1 ovarian
KM12 colon = system: KM12 colon
MCF7 breast = system: MCF7 breast
MDA-MB-231 breast = system: MDA-MB-231 breast
RPMI-8226 leukemia = system: RPMI-8226 leukemia
SK-MEL-2 melanoma = system: SK-MEL-2 melanoma
SNB-19 CNS = system: SNB-19 CNS
UACC-62 melanoma = system: UACC-62 melanoma

| Compound | GI50 (DU-145 prostate) [µM] | TGI (DU-145 prostate) [µM] | GI50 (HCC-2998 colon) [µM] | TGI (HCC-2998 colon) [µM] | GI50 (HL-60(TB) leukemia) [µM] | TGI (HL-60(TB) leukemia) [µM] | GI50 (HOP-62 NSCLC) [µM] | TGI (HOP-62 NSCLC) [µM] | GI50 (HS 578T breast) [µM] | TGI (HS 578T breast) [µM] | GI50 (IGROV1 ovarian) [µM] | TGI (IGROV1 ovarian) [µM] | GI50 (KM12 colon) [µM] | TGI (KM12 colon) [µM] | GI50 (MCF7 breast) [µM] | TGI (MCF7 breast) [µM] | GI50 (MDA-MB-231 breast) [µM] | TGI (MDA-MB-231 breast) [µM] | GI50 (RPMI-8226 leukemia) [µM] | GI50 (SK-MEL-2 melanoma) [µM] | also measured |
| --- | --- | --- | --- | --- | --- | --- | --- | --- | --- | --- | --- | --- | --- | --- | --- | --- | --- | --- | --- | --- | --- |
| C[C@@H](Oc1cc(NS(=O)(=O)N2CCC2)nc(SCc2cccc(F)c2F)n1)[C@@H](O)CO | > 100 | > 100 | > 77.4 | > 100 | > 36 | > 51.2 | > 100 | > 100 | 57.7 | > 100 | > 100 | > 100 | 98.3 | > 100 | > 52.1 | > 100 | > 75.9 | > 100 | 20 | > 79.6 | TGI (RPMI-8226 leukemia): > 60 µM; TGI (SK-MEL-2 melanoma): > 100 µM; GI50 (SNB-19 CNS): > 100 µM; TGI (SNB-19 CNS): > 100 µM; GI50 (UACC-62 melanoma): > 57.2 µM; TGI (UACC-62 melanoma): > 100 µM |
| COc1cc(C)[nH]c(=O)c1CN1CCc2c(Cl)cc([C@H](OC)C3COC3)c(Cl)c2C1=O | > 100 | > 100 | > 100 | > 100 | > 78.5 | > 100 | > 100 | > 100 | > 100 | > 100 | > 100 | > 100 | > 100 | > 100 | > 100 | > 100 | > 78.3 | > 100 | 0.0849 | > 100 | TGI (SK-MEL-2 melanoma): > 100 µM; GI50 (SNB-19 CNS): > 100 µM; TGI (SNB-19 CNS): > 100 µM; GI50 (UACC-62 melanoma): > 100 µM; TGI (UACC-62 melanoma): > 100 µM |
